According to patent US20240373829A1, “GENETIC RESISTANCE TO VIRAL DISEASE IN SALMONID FISH” (THE UNIVERSITY COURT OF THE UNIVERSITY OF EDINBURGH, priority 2021, published 2024):

Legend:
IPNV [1] = assay: IPNV viral load (VP2 qRT-PCR) in MLN4924-treated SHK-1 cells; assay type: cell-based, infectious pancreatic necrosis virus; details: 100 nM MLN4924 24 hours prior to infection, during the course of infection, vs DMSO only
Description: To evaluate the viral load in cells, relative transcript level of IPNV VP2 to ef1a in the total RNAs was analysed by qRT-PCR using Luna Universal One-Step RT-qPCR reagent (NEB, Ipswich, USA) and LightCycler 480 Instrument (Roche, Basel, Switzerland) in duplicates. Each reaction consisted of 0.5 μL RNAs, 1× Reaction Mix, 1× Enzyme Mix, 0.4 μM each primer (Supplementary Table 4) and nuclease-free water up to 10 μL. The thermocycling initiated with reverse transcription at 55° C. for 10 min and initial denaturation at 95° C. for 1 min, followed by 40 cycles of denaturation at 95° C. for 10 sec and extension at 60° C. for 30 sec with plate read, and melt curve analysis. Efficiency and linearity (R^2) of each primer pair were checked using serial dilution of total RNAs in duplicates. The relative viral transcript level of IPNV VP2 versus ef1a in the KO SHK-1 cells compared to wild type SHK-1 cells at each timepoint was calculated using 2^−ΔΔCT.
Lyophilised MLN4924 (pevonedistat) was resuspended in DMSO. MLN4924 was titrated for cytotoxicity on CHSE-214 and SHK-1 cells. […] The impact of the MLN4924 on cell viability was assessed by sampling at 24, 48, 72, and 96 hpi and comparing cell survival in all challenged groups (including the DMSO control) versus the unchallenged control at the same timepoint.

IPNV viral proteins = assay: Western blot of IPNV viral proteins from MLN4924-treated SHK-1 cells; assay type: cell-based, infectious pancreatic necrosis virus; details: SHK-1 cells treated with MLN4924 or DMSO, 120 h, MOI 0.01
Description: To evaluate the infectivity of viral output, cells and supernatant were harvested at 120 hpi and assessed by TCID50 on naïve CHSE-214 cells. For semi-quantification of viral protein output, western blot against viral proteins was performed. At 120 hpi, supernatant from a 150 mm dishes containing SHK-1 cells treated with either 100 nM MLN4924 or DMSO for 24 hours before infection with IPNV at an MOI of 0.01 was collected, sterile filtered, and ultra-centrifuged at 22000 x g for 1 hour. The ultra-centrifuged virus pellet from the supernatant was resuspended in Laemmli buffer. The cell-associated virus was also analysed by harvesting cells in Laemmli buffer. These samples were separated by PAGE (4-15% Mini-Protean, BIORAD), transferred onto nitrocellulose membrane, and the viral protein was visualised using a monoclonal antibody that recognises all IPN viral proteins, and secondary LICOR antibodies.

SHK-1 cells = assay: MLN4924 cell viability in SHK-1 cells; assay type: cell-based, Atlantic salmon; details: MLN4924 treatment compared to DMSO-treated controls
Description: Lyophilised MLN4924 (pevonedistat) was resuspended in DMSO. MLN4924 was titrated for cytotoxicity on CHSE-214 and SHK-1 cells. SHK-1 or CHSE-214 cells were seeded at 80% confluency and treated with 0 (DMSO only), 100 nM, 1 μM or 5 μM MLN4924 for 24 hours prior to inoculation with IPNV at an MOI of 0.01. The impact of the MLN4924 on cell viability was assessed by sampling at 24, 48, 72, and 96 hpi and comparing cell survival in all challenged groups (including the DMSO control) versus the unchallenged control at the same timepoint.

RTG-2 cells = assay: MLN4924 cytotoxicity test (cell viability assay) in RTG-2 cells; assay type: cell-based, rainbow trout (Oncorhynchus mykiss); details: wild type RTG-2 cells; 0.1, 1 and 5 uM; 24, 48, 72 and 96 hours post treatment
Description: Initially, four different concentrations of MLN4924 0 (DMSO-only), 0.1, 1 and 5 uM, were tested in fresh RTG-2 cells to investigate if they exerted toxicity in wild type RTG-2 cells. A cell viability assay was used to assess any present cytopathic effect at four different time points: 24, 48, 72 and 96 hours post treatment with the four different concentrations of the inhibitor.

IPNV [2] = assay: Supernatant infectivity assay (TCID50) of MLN4924 and IPNV-treated RTG-2 cells; assay type: cell-based, infectious pancreatic necrosis virus
Description: Wild type RTG-2 cells were seeded in 4× quadruplicates in 24-well plates and were allowed to settle for 24 hours. The four quadruplicates were then treated with DMSO-only, 0.1, 1 and 5 uM of MLN4924, respectively. 24 hours after the MLN4924 treatment, the inhibitor inoculum was removed and IPNV in a dose of 10-5 TCID50/mL was inoculated in the cells, along with the four doses of MLN4924. Supernatants were collected at 48 and 72 hpi, and were stored at −80° C. until use.
TCID50 (Median Tissue Culture Infectious Dose) assay was used to assess the titer of the viral supernatants, harvested from the MLN4924 and IPNV-treated cells at 72 hpi. Firstly, 20,000 cells/well were seeded in wells of a 96-well plate (in four rows of 10 wells for each supernatant, for 4 replicates) and were allowed to settle and grow overnight. The following day, the media was removed with a multichannel pipette and replaced with serial 10-fold dilutions (starting from the neat original viral supernatants up to 10^−7 dilution). The latter were prepared in 2% FBS media (with penicillin streptomycin). The seeded cells were inoculated with these serial dilutions (four replicates per virus dilution, 100 uL/96-well). The last two wells of each row were used as controls, meaning that no virus was added there, only media. The 96-well plate was incubated at 15° C. for the duration of the experiment. The Cytopathic Effect (CPE) of the viral infection was assessed using CellTiter-Glo® Luminescent Cell Viability Assay (Promega, Madison, USA), at 30 hpi. The 50% endpoint titer was further calculated using the Reed and Muench method^16.
MLN4924 inhibitor was used to inhibit nae1 activity. Four supernatants of each dose group collected from the MLN4924 and IPNV-treated cells at 72 hpi were tested in two independent TCID50 infectivity assays followed by a cell viability assay at 30 hpi and use of the Reed and Muench method to analyze the cytopathic effect present in the wells.

DNA and RNA viruses = details: in vitro, multitude of DNA and RNA viruses (ref 15); cited from earlier work

For NS(=O)(=O)OC[C@@H]1C[C@@H](n2ccc3c(N[C@H]4CCc5ccccc54)ncnc32)C[C@@H]1O [MLN4924], the “IPNV RNA copy number” value (IPNV [1]) was “little difference”, the “abundance of IPNV viral proteins (western blot)” value (IPNV viral proteins) was “notable decrease” and the cell viability (SHK-1 cells) was “no associated decrease in cell viability”. For the same molecule, the “cytotoxicity (cell viability assay)” value (RTG-2 cells) was “none of the doses were cytotoxic”, the “productive IPNV viral output (TCID50)” value (IPNV [2]; 0.1 μM MLN4924, 72 hpi supernatants) was “effect similar to the DMSO-only cell group” and the “productive IPNV viral output (TCID50)” value (IPNV [2]; 1 μM MLN4924, 72 hpi supernatants, vs DMSO-only) was “marked drop”. The “productive IPNV viral output (TCID50)” value (IPNV [2]; 5 μM MLN4924, 72 hpi supernatants, vs DMSO-only) was “marked drop” and the anti-viral activity (DNA and RNA viruses) was “broad-acting anti-viral activity”.
